Converted amounts (≈) assume the structure as drawn. The source made the active and inactive calls. The rule behind the calls is not given here. Some results are limits rather than exact numbers.

Data set [1] is described as follows: Aqueous solubility of the compound in water by HPLC based shake flask method. The class given is physicochemical.
For data set [2], the system named is Danio rerio. The data set can be described thus: Toxicity in wild type zebrafish embryo in E3 medium assessed as induction of lethality treated at <60 uM dosed 24 hrs of post fertilization observed on 96 to 120 hrs of post fertilization. The data set is classed as organism-based. The note with it: in vivo.
Data set [3] concerns Danio rerio. The data set can be described thus: Induction of morphological abnormality in wild type zebrafish embryo in E3 medium at 1 to 15 uM dosed 24 hrs of post fertilization. The data set is classed as functional, organism-based.
Data set [4] has as its system Danio rerio. The data set can be described thus: Induction of morphological abnormality wild type zebrafish embryo in E3 medium assessed as stunted and crooked tail phenotype at >30 uM dosed 24 hrs of post fertilization. The data set is classed as functional, organism-based.
Data set [5] has as its system Danio rerio. Put plainly: Inhibition of embryonic development in wild type zebrafish embryo in E3 medium assessed as beta catenin activation at >30 uM dosed 24 hrs of post fertilization. The class given is functional, organism-based.
Data set [6] addresses T1, Glycogen synthase kinase-3 alpha (Homo sapiens, UniProt P49840).
Target sequence in this assay (P49840 whole entry): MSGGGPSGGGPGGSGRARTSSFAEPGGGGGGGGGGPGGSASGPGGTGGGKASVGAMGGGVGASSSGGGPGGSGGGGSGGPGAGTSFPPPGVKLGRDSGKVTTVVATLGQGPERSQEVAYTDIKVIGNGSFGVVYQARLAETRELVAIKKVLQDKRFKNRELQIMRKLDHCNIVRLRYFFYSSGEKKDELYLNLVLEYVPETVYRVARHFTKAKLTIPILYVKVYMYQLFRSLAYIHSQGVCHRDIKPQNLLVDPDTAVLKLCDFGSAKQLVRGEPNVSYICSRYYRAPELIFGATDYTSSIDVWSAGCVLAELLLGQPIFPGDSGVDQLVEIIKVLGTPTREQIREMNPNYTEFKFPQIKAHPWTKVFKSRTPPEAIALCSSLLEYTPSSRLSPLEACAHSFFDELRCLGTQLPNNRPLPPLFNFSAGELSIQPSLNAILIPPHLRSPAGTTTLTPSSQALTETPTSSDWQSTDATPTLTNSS
Data set [7] deals with Glycogen synthase kinase-3 beta (Homo sapiens, UniProt P49841).
For data set [8], the target named is T1, Glycogen synthase kinase-3 alpha. The note with it: HL-60, 5 to 10 uM.
Target sequence in this assay (P49840 2-483 limits assumed): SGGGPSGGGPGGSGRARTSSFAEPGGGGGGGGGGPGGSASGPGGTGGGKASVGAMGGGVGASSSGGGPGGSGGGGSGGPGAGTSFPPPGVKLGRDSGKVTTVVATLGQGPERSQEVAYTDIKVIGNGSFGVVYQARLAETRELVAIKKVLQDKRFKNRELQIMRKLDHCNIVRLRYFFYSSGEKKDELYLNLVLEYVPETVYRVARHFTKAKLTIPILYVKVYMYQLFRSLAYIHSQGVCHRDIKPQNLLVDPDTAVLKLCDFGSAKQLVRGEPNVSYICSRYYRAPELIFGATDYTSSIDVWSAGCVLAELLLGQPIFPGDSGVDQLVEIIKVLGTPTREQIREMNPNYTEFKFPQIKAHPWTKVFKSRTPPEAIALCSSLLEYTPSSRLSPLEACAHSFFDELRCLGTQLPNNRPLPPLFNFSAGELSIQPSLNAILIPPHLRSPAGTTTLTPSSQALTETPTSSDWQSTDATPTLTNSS
Description: Inhibition of GSK-3 alpha in human HL-60 cells assessed as decreased nuclear to cytoplasmic ratio at 5 to 10 uM after 6 days by May-Grunwald Giemsa staining based light microscopy
The target is the same in data set [9]. Particulars: NB-4, 5 to 10 uM.
Target sequence in this assay (P49840 2-483 limits assumed): as above
Description: Inhibition of GSK-3 alpha in human NB4 cells assessed as decreased nuclear to cytoplasmic ratio at 5 to 10 uM after 6 days by May-Grunwald Giemsa staining based light microscopy
Data set [10] has the same target. The note with it: HL-60, 5 to 10 uM. The source holds these as a separate data set.
Target sequence in this assay (P49840 2-483 limits assumed): as above
Description: Inhibition of GSK-3 alpha in human HL-60 cells assessed as increased vacuolization at 5 to 10 uM after 6 days by May-Grunwald Giemsa staining based light microscopy
Data set [11] shares this target. Particulars: NB-4, 5 to 10 uM. This is another data set of the same source.
Target sequence in this assay (P49840 2-483 limits assumed): as above
Description: Inhibition of GSK-3 alpha in human NB4 cells assessed as increased vacuolization at 5 to 10 uM after 6 days by May-Grunwald Giemsa staining based light microscopy
Data set [12] has the same target. Particulars: HL-60, 5 to 10 uM. This is another data set of the same source.
Target sequence in this assay (P49840 2-483 limits assumed): as above
Description: Inhibition of GSK-3 alpha in human HL-60 cells assessed as CD11b expression at 5 to 10 uM after 6 days by flow cytometry
Data set [13] has the same target. Particulars: HL-60, 5 to 10 uM. This is another data set of the same source.
Target sequence in this assay (P49840 2-483 limits assumed): as above
Description: Inhibition of GSK-3 alpha in human HL-60 cells assessed as CD11c expression at 5 to 10 uM after 6 days by flow cytometry
Data set [14] has the same target. Particulars: HL-60, 5 to 10 uM. The source holds these as a separate data set.
Description: Inhibition of GSK-3 alpha in human HL-60 cells assessed as CD14 expression at 5 to 10 uM after 6 days by flow cytometry
For data set [15] the target is unchanged. The note with it: NB-4, 5 to 10 uM. The source holds these as a separate data set.
Description: Inhibition of GSK-3 alpha in human NB4 cells assessed as CD11b expression at 5 to 10 uM after 6 days by flow cytometry
Data set [16] has the same target. The note with it: NB-4, 5 to 10 uM. This is another data set of the same source.
Description: Inhibition of GSK-3 alpha in human NB4 cells assessed as CD11c expression at 5 to 10 uM after 6 days by flow cytometry
Data set [17] shares this target. Particulars: NB-4, 5 to 10 uM. This is another data set of the same source.
Description: Inhibition of GSK-3 alpha in human NB4 cells assessed as CD14 expression at 5 to 10 uM after 6 days by flow cytometry
For data set [18] the target is unchanged. Particulars: HL-60, 5 to 10 uM. The source holds these as a separate data set.
Data set [19] shares this target. The note with it: NB-4, 5 to 10 uM. This is another data set of the same source.
The species named for data set [20] is Sus scrofa. The note with it: 100 nM.
For data set [21], the species on record is Sus scrofa. The note with it: 100 nM. The source holds these as a separate data set.
The subject of data set [22] is Danio rerio. The data set can be described thus: Induction of morphological abnormality in wild type zebrafish embryo in E3 medium dosed 24 hrs of post fertilization. The data set is classed as functional, organism-based.

Sequence of Glycogen synthase kinase-3 beta (P49841 whole entry): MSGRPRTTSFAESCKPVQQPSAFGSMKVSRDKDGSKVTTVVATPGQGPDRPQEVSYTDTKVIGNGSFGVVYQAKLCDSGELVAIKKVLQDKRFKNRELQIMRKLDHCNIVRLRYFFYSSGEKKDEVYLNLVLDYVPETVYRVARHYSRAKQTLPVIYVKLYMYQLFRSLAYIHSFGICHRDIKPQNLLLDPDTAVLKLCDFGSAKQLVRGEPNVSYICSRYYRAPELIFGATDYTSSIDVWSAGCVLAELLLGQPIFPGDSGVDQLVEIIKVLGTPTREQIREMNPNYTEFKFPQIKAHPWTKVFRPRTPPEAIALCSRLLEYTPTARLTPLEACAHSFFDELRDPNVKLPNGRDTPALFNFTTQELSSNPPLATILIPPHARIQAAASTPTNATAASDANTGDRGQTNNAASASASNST

As for `NC(=O)c1cc(F)ccc1-c1ccc(CSc2nnc(-c3ccc4c(c3)OCCO4)o2)cc1`, in data set [1], the solubility (thermodynamic) was determined as 73 µM (≈ 33.8 µg/mL). In addition, in the data set on Danio rerio [2], the Activity result is “Non-toxic”. The outcome in the data set with Danio rerio [3] was inactive. Further, the outcome in the data set on Danio rerio [4] and in the data set with Danio rerio [5] was Active. Besides, the IC50 in data set [6] turned out to be 42 nM; in data set [7], 140 nM. Further, the inhibition entry in [8], in data set [9], in [10], in data set [11], in data set [12] and in data set [13] was “Active” in each case. Also, the inhibition result in data set [14], in data set [15], in data set [16], in data set [17], in data set [18] and in data set [19] was “Active” each time.

In the case of `N#Cc1cc(F)ccc1-c1ccc(CS(=O)(=O)c2nnc(-c3ccc4c(c3)OCCO4)o2)cc1`, the inhibition in the data set filed under Sus scrofa [20] and in the data set filed under Sus scrofa [21] was 0% each time.

In [1], `N#Cc1ccc(-c2ccc(CSc3nnc(-c4ccc5c(c4)OCCO5)o3)cc2)cn1` had a solubility (thermodynamic) of 50 µM (≈ 21.4 µg/mL).

`N#Cc1cc(F)ccc1-c1ccc(CSc2nnc(-c3ccc4c(c3)OCCO4)o2)cc1` gave a thermodynamic solubility in data set [1] of 1 µM (≈ 0.445 µg/mL).

Consider `Cc1ccc(-c2ccc(CSc3nnc(-c4ccc5c(c4)OCCO5)o3)cc2)nc1`, for which, in [1], the thermodynamic solubility was 1 µM (≈ 0.417 µg/mL).

In [1], `N#Cc1ccc(-c2ccc(CSc3nnc(-c4ccc5c(c4)OCCO5)o3)cc2)nc1` yielded a thermodynamic solubility of 181 µM (≈ 77.6 µg/mL). For the same molecule, the Activity entry in the data set with Danio rerio [2] is listed as “Non-toxic”. In addition, the result in the data set with Danio rerio [22] was inactive.

With `Fc1ccc(-c2ccc(CSc3nnc(-c4ccc5c(c4)OCCO5)o3)cc2)cn1`, the solubility (thermodynamic) in data set [1] came out at 17 µM (≈ 7.16 µg/mL).

`Fc1ccc(-c2ccc(CSc3nnc(-c4ccc5c(c4)OCCO5)o3)cn2)cn1` yielded a thermodynamic solubility in [1] of 1 µM (≈ 0.422 µg/mL).

As for `Cc1ccc(-c2ccc(CSc3nnc(-c4ccc5c(c4)OCCO5)o3)cc2)cn1`, the solubility (thermodynamic) in data set [1] was less than 1 µM.

The record behind these values is ChEMBL document CHEMBL3632523, “Evaluation of Improved Glycogen Synthase Kinase-3α Inhibitors in Models of Acute Myeloid Leukemia” (J Med Chem, 2015).
